This series is described as follows: log P determination by HPLC (reversed-phase C18, EEC Directive 79/831 Annex V.A8). It is filed as physicochemical. Conditions: reversed-phase C18 HPLC column, pH 2.3, pH 2.3, 0.1% aqueous phosphoric acid/acetonitrile gradient, 43° C. An excerpt: Mobile phases for determination in the acidic range: 0.1% aqueous phosphoric acid, acetonitrile; linear gradient from 10% acetonitrile to 90% acetonitrile.
On to `CN(C(=O)C(C)(C)C)c1ccc(-c2ccc(C3CCC(c4c(F)cccc4F)=N3)cc2)nn1` (stereo not shown) [Example 56], for which the chromatographic logP (usually lipophilicity estimated from chromatographic retention) amounted to 2.29.

The molecule `CCCCCCC(=O)N(c1ccc(-c2ccc(C3CCC(c4c(F)cccc4F)=N3)cc2)nn1)C1CCCC1` (stereo not shown) [Example 58] displayed a chromatographic logP of 4.82.

As for `CCCCCCC(=O)N(c1ccc(-c2ccc(C3CCC(c4c(F)cccc4F)=N3)cc2)nn1)C1CCCCC1` (stereo not shown) [Example 59], the chromatographic logP is 4.35.

`CCCCCCN(C(C)=O)c1ccc(-c2ccc(C3CCC(c4c(F)cccc4F)=N3)cc2)nn1` (stereo not shown) [Example 60]: the chromatographic logP is 3.11.

Molecule `CCCCCCN(C(=O)C(C)(C)C)c1ccc(-c2ccc(C3CCC(c4c(F)cccc4F)=N3)cc2)nn1` (stereo not shown) [Example 61] returned a chromatographic logP of 4.35.

In the case of `CCCN(C(=O)C(C)(C)C)c1ccc(-c2ccc(C3CCC(c4c(F)cccc4F)=N3)cc2)nn1` (stereo not shown) [Example 62], the chromatographic logP was found to be 2.95.

For `CC(C)(C)C(=O)N(c1ccc(-c2ccc(C3CCC(c4c(F)cccc4F)=N3)cc2)nn1)C1CCCC1` (stereo not shown) [Example 63], the chromatographic logP was determined as 3.22.

In turn, `CCCCCCC(=O)N(CCC)c1ccc(-c2ccc(C3CCC(c4c(F)cccc4F)=N3)cc2)nn1` (stereo not shown) [Example 64] yielded a chromatographic logP of 3.89.

In turn, `CC(C)(C)C(=O)N(c1ccc(-c2ccc(C3CCC(c4c(F)cccc4F)=N3)cc2)nn1)C1CCCCC1` (stereo not shown) [Example 65] yielded a chromatographic logP of 3.56.

Molecule `CC(C)(C)C(=O)N(c1ccc(-c2ccc(C3CCC(c4c(F)cccc4F)=N3)cc2)nn1)C1CC1` (stereo not shown) [Example 66] came in with a chromatographic logP of 2.53.

The molecule `CC(=O)N(C)c1ccc(-c2ccc(C3CCC(c4c(F)cccc4F)=N3)cc2)nn1` (stereo not shown) [Example 67] gave a chromatographic logP of 1.48.

Molecule `CCCCCC(=O)N(C)c1ccc(-c2ccc(C3CCC(c4c(F)cccc4F)=N3)cc2)nn1` (stereo not shown) [Example 68] returned a chromatographic logP of 3.24.

`Fc1cccc(F)c1C1=NC(c2ccc(-c3ccc(OC(C(F)(F)F)C(F)(F)F)nn3)cc2)CC1` (stereo not shown) [Example 69] showed a chromatographic logP of 3.7.

The molecule `CCOC(=O)N1CCN(c2ccc(-c3ccc(C4CCC(c5c(F)cccc5F)=N4)cc3)nn2)CC1` (stereo not shown) [Example 70] displayed a chromatographic logP of 1.63.

For `Fc1cccc(F)c1C1=NC(c2ccc(-c3ccc(OCCCC(F)(F)C(F)(F)F)nn3)cc2)CC1` (stereo not shown) [Example 73], the chromatographic logP came out at 3.58.

In turn, `FC(F)=C(F)CCOc1ccc(-c2ccc(C3CCC(c4c(F)cccc4F)=N3)cc2)nn1` (stereo not shown) [Example 74] displayed a chromatographic logP of 2.95.

For `CCN(C)c1ccc(-c2ccc(C3CCC(c4c(F)cccc4F)=N3)cc2)nn1` (stereo not shown) [Example 75], the chromatographic logP came out at 1.23.

Molecule `CCCCN(CC)c1ccc(-c2ccc(C3CCC(c4c(F)cccc4F)=N3)cc2)nn1` (stereo not shown) [Example 77] returned a chromatographic logP of 1.82.

Consider `CCCN(CCC)c1ccc(-c2ccc(C3CCC(c4c(F)cccc4F)=N3)cc2)nn1` (stereo not shown) [Example 78], for which the chromatographic logP turned out to be 1.86.

`CN(C)c1ccc(-c2ccc(C3CCC(c4c(F)cccc4F)=N3)cc2)nn1` (stereo not shown) [Example 79] yielded a chromatographic logP of 1.08.

The molecule `CCN(CC)c1ccc(-c2ccc(C3CCC(c4c(F)cccc4F)=N3)cc2)nn1` (stereo not shown) [Example 80] came in with a chromatographic logP of 1.39.

`Fc1cccc(F)c1C1=NC(c2ccc(-c3ccc(N4CCCC4)nn3)cc2)CC1` (stereo not shown) [Example 81] gave a chromatographic logP of 1.28.

As for `CC(C)S(=O)(=O)c1ccc(-c2ccc(C3CCC(c4c(F)cccc4F)=N3)cc2)nn1` (stereo not shown) [Example 82], the chromatographic logP was determined as 1.4.

For `CC(=O)OCCCN(Cc1ccc(-c2ccc(C3CCC(c4c(F)cccc4F)=N3)cc2)nn1)C(C)=O` (stereo not shown) [Example 89], the chromatographic logP came out at 1.77.

With `Fc1cccc(F)c1C1=NC(c2ccc(-c3cnc(Cc4ccccc4)nc3)cc2)CC1` (stereo not shown) [Example 91], the chromatographic logP worked out at 2.79.

As for `Fc1cccc(F)c1C1=NC(c2ccc(-c3cnc(SCSC(F)(F)F)nc3)cc2)CC1` (stereo not shown) [Example 92], the chromatographic logP came to 4.

As to `FC(F)Sc1ncc(-c2ccc(C3CCC(c4ccccc4Cl)=N3)cc2)cn1` (stereo not shown) [Example 93], the chromatographic logP came to 3.38.

`Fc1cccc(F)c1C1=N[C@@H](c2ccc(-c3ccc(C(F)(F)F)cn3)cc2)CC1` [Example 94] displayed a chromatographic logP of 3.28.

As to `Fc1cccc(F)c1C1=NC(c2ccc(-c3cnc(OC(C(F)(F)F)C(F)(F)F)nc3)cc2)CC1` (stereo not shown) [Example 95], the chromatographic logP turned out to be 3.85.

With `CN1CCN(c2ccc(-c3ccc(C4CCC(c5c(F)cccc5F)=N4)cc3)cn2)CC1` (stereo not shown) [Example 96], the chromatographic logP was 1.04.

Molecule `CC1CC(C)CN(c2ccc(-c3ccc(C4CCC(c5c(F)cccc5F)=N4)cc3)cn2)C1` (stereo not shown) [Example 97] came in with a chromatographic logP of 2.1.

`CCCCCCN(C)c1ncc(-c2ccc(C3CCC(c4c(F)cccc4F)=N3)cc2)cn1` (stereo not shown) [Example 99] yielded a chromatographic logP of 4.94.

In turn, `CCCOc1ncc(-c2ccc(C3CCC(c4c(F)cccc4F)=N3)cc2)cn1` (stereo not shown) [Example 100] had a chromatographic logP of 2.72.

On to `CCN1CCN(c2ncc(-c3ccc(C4CCC(c5c(F)cccc5F)=N4)cc3)cn2)CC1` (stereo not shown) [Example 101], for which the chromatographic logP was 1.24.

Regarding `CCOc1ncc(-c2ccc(C3CCC(c4c(F)cccc4F)=N3)cc2)cn1` (stereo not shown) [Example 102], the chromatographic logP is 2.21.

`CCC1CC(CC)CN(c2ncc(-c3ccc(C4CCC(c5c(F)cccc5F)=N4)cc3)cn2)C1` (stereo not shown) [Example 103] registered a chromatographic logP of 5.82.

As to `CC1CN(c2ncc(-c3ccc(C4CCC(c5c(F)cccc5F)=N4)cc3)cn2)CC(C)O1` (stereo not shown) [Example 104], the chromatographic logP came to 3.

Take `Fc1cccc(F)c1C1=NC(c2ccc(-c3cnc(N4CCCCCC4)nc3)cc2)CC1` (stereo not shown) [Example 105]: the chromatographic logP was 3.41.

`O=C1CCCCCN1c1ccc(-c2ccc(C3CCC(c4c(F)cccc4F)=N3)cc2)cn1` (stereo not shown) [Example 106] gave a chromatographic logP of 2.25.

In turn, `COCCN(CCOC)c1ncc(-c2ccc(C3CCC(c4c(F)cccc4F)=N3)cc2)cn1` (stereo not shown) [Example 107] showed a chromatographic logP of 2.48.

In turn, `C=CCN(CC=C)c1ncc(-c2ccc(C3CCC(c4c(F)cccc4F)=N3)cc2)cn1` (stereo not shown) [Example 108] returned a chromatographic logP of 3.74.

In the case of `Fc1cccc(F)c1C1=NC(c2ccc(-c3ccc(N4CCCCCC4)nc3)cc2)CC1` (stereo not shown) [Example 109], the chromatographic logP came out at 1.65.

Molecule `Fc1cccc(F)c1C1=NC(c2ccc(-c3ccc(Br)cn3)cc2)CC1` (stereo not shown) [Example 110] registered a chromatographic logP of 3.07.

Molecule `Fc1cccc(F)c1C1=NC(c2ccc(-c3ccc(N4CCCCC4)nc3)cc2)CC1` (stereo not shown) [Example 111] came in with a chromatographic logP of 1.49.

With `CCCC(C)N1CCN(c2ncc(-c3ccc(C4CCC(c5c(F)cccc5F)=N4)cc3)cn2)CC1` (stereo not shown) [Example 112], the chromatographic logP was determined as 1.65.

In the case of `CCC(C)N1CCN(c2ccc(-c3ccc(C4CCC(c5c(F)cccc5F)=N4)cc3)cn2)CC1` (stereo not shown) [Example 113], the chromatographic logP is 1.3.

Consider `Fc1cccc(F)c1C1=NC(c2ccc(-c3ccc(-n4ccnc4)nc3)cc2)CC1` (stereo not shown) [Example 114], for which the chromatographic logP stood at 1.28.

Consider `Cc1ccc(N2CCN(c3ncc(-c4ccc(C5CCC(c6c(F)cccc6F)=N5)cc4)cn3)CC2)cc1C` (stereo not shown) [Example 116], for which the chromatographic logP is 3.88.

`Fc1cccc(F)c1C1=NC(c2ccc(-c3cnc(N4CCN(c5ncccn5)CC4)nc3)cc2)CC1` (stereo not shown) [Example 117] registered a chromatographic logP of 2.7.

The molecule `Fc1cccc(F)c1C1=NC(c2ccc(-c3cnc(-n4cncn4)nc3)cc2)CC1` (stereo not shown) [Example 118] returned a chromatographic logP of 1.55.

`CC(C)(C)C1CCN(c2ncc(-c3ccc(C4CCC(c5c(F)cccc5F)=N4)cc3)cn2)CC1` (stereo not shown) [Example 119]: the chromatographic logP is 5.47.

`CC1(C)CCN(c2ncc(-c3ccc(C4CCC(c5c(F)cccc5F)=N4)cc3)cn2)CC1` (stereo not shown) [Example 120] gave a chromatographic logP of 4.38.

`CCC1CCN(c2ncc(-c3ccc(C4CCC(c5c(F)cccc5F)=N4)cc3)cn2)CC1` (stereo not shown) [Example 121] returned a chromatographic logP of 4.58.

Take `Fc1cccc(F)c1C1=NC(c2ccc(-c3cnc(N4CCC(C(F)(F)F)CC4)nc3)cc2)CC1` (stereo not shown) [Example 122]: the chromatographic logP is 3.84.

On to `Fc1cccc(F)c1C1=NC(c2ccc(-c3cnc(N4CCN(CC5CCCCC5)CC4)nc3)cc2)CC1` (stereo not shown) [Example 123], for which the chromatographic logP came to 2.12.

In turn, `Fc1cccc(F)c1C1=NC(c2ccc(-c3cnc(-n4ccnc4)nc3)cc2)CC1` (stereo not shown) [Example 124] gave a chromatographic logP of 1.25.

Molecule `CCOCCN1CCN(c2ncc(-c3ccc(C4CCC(c5c(F)cccc5F)=N4)cc3)cn2)CC1` (stereo not shown) [Example 125] registered a chromatographic logP of 1.47.

Regarding `COCCCN1CCN(c2ncc(-c3ccc(C4CCC(c5c(F)cccc5F)=N4)cc3)cn2)CC1` (stereo not shown) [Example 126], the chromatographic logP was 1.38.

Take `Fc1cccc(F)c1C1=NC(c2ccc(-c3ccc(OC(F)F)nc3)cc2)CC1` (stereo not shown) [Example 127]: the chromatographic logP worked out at 3.13.

Consider `Fc1cccc(F)c1C1=NC(c2ccc(-c3ccc(N4CCN(CC5CCCCC5)CC4)nc3)cc2)CC1` (stereo not shown) [Example 128], for which the chromatographic logP came to 6.7.

`N#Cc1ccc(N2CCN(c3ccc(-c4ccc(C5CCC(c6c(F)cccc6F)=N5)cc4)cn3)CC2)cc1` (stereo not shown) [Example 129] came in with a chromatographic logP of 2.29.

`Fc1cccc(F)c1C1=NC(c2ccc(-c3cnc(-n4cccn4)nc3)cc2)CC1` (stereo not shown) [Example 130] gave a chromatographic logP of 1.98.

Molecule `N#CCCN1CCN(c2ncc(-c3ccc(C4CCC(c5c(F)cccc5F)=N4)cc3)cn2)CC1` (stereo not shown) [Example 131] returned a chromatographic logP of 1.69.

Take `CN(C)CCN1CCN(c2ncc(-c3ccc(C4CCC(c5c(F)cccc5F)=N4)cc3)cn2)CC1` (stereo not shown) [Example 132]: the chromatographic logP was found to be 3.

Take `N#Cc1ccccc1N1CCN(c2ccc(-c3ccc(C4CCC(c5c(F)cccc5F)=N4)cc3)cn2)CC1` (stereo not shown) [Example 133]: the chromatographic logP stood at 2.3.

Turning to `Cc1cccc(N2CCN(c3ncc(-c4ccc(C5CCC(c6c(F)cccc6F)=N5)cc4)cn3)CC2)c1C` (stereo not shown) [Example 134], the chromatographic logP amounted to 5.78.

As to `CCC(CC)N1CCN(c2ncc(-c3ccc(C4CCC(c5c(F)cccc5F)=N4)cc3)cn2)CC1` (stereo not shown) [Example 135], the chromatographic logP was found to be 2.13.
